In patent US12240890B2, “Compositions and methods for treating and/or preventing pathogenic fungal infection and for maintenance of microbiome commensalism” (priority 2017, dated 2025):

Columns and labels:
[1] = tested on: C. albicans strain SC5314; experiment: crystal violet based biofilm assay (24 hours, OD600); type: cell-based, Candida albicans; conditions: crystal violet staining, 10-20 uM of respective peptides
Experimental: FIG. 13. […] Biofilm formation was measured in an assay that quantitates biofilms by staining with a crystal violet dye. The amount of dye absorbed by the biofilm positively correlates with amount of biofilm present. Amount of dye is measured via an optical density reading at a wavelength of 600 nm (OD600). Biofilm formation is measured over 24 hours in the presence or absence of peptides at 10, 30, or 40 uM concentrations.
(§1) Candida albicans (sc3514 cited in: Romanowski et al. PLOS One 7: e30119, 2012.: incorporated by reference in its entirety) and Candida tropicalis (ATCC #13803) were maintained in frozen glycerol stocks at −80° C. and streaked out on yeast-peptone-dextrose (YPD) agar plates for 48 hours at 30° C. prior to use. Single colonies were selected and cultured in YPD media at 30° C. Biofilm assays were performed using crystal violet straining (Taff et al. Med Mycol 50:214-218, 2012.: incorporated by reference in its entirety) in the presence of 10-20 uM of respective peptides. To induce hyphal growth, strains were placed in YPD+5% FBS or RPMI media at 37° C. for 4 hours. To image hyphal membrane disruption, the DNA binding fluorescent dye, propidium iodide (PI), was added to wells strains in the presence of peptides and imaged under bright field and far red fluorescent conditions. […] To investigate Candida albican virulence gene expression, 10 μL of a 1.0 OD600 culture were placed in 1 mL RPMI at 37° C. with shaking for 8 hours. Cultures were centrifuged at 3000×g for 5 minutes and RNA isolation was performed as described below.
Antifungal activity of peptides described in this application was tested by performing a crystal violet based biofilm assay. In this assay, Candida albicans is induced to form a biofilm in a 96-well plate for 24 hours in the presence or absence of peptide. Biofilm formation is quantitated through crystal violet staining and solubilization followed by optical density reading. […] Data are OD600 values normalized to appropriate within experiment vehicle control. Statistical analysis was performed via 2-Way ANOVA with multiple comparisons post-test. Significance is denoted by: *=p<0.05; **=p<0.01; ***-p<0.001; ****=p<0.0001. ns=not significant.

Candida albicans = Candida albicans culture growth; type: cell-based; conditions: hyphal inducing conditions (broth culture containing serum)
C. albicans = experiment: respiration of C. albicans; type: cell-based, Candida albicans
C. tropicalis = experiment: respiration of C. tropicalis; type: cell-based, Candida tropicalis
[2] = tested on: Candida albicans virulence genes; experiment: virulence gene expression by qRT-PCR; type: cell-based; conditions: hyphal form, RPMI at 37° C., compared with scrambled peptide controls
Experimental: as §1

Magainin-2 was tested, and the “inhibition of biofilm formation” value [1] was “inhibit biofilm formation”, the “C. albicans culture growth” value (Candida albicans) was “inhibited culture growth” and the respiration (C. albicans; hyphal form) was “suppressed respiration”. The respiration (C. albicans; yeast form) was “suppressed activity”, the respiration (C. tropicalis; hyphal form) was “suppressed respiration” and the respiration (C. tropicalis; yeast form) was “suppressed activity”. For the same substance, the virulence gene expression [2] was “induced expression of several virulence genes”.
